Where two headings read alike, the source gives them in different places.
Molecular target: T1, recombinant human NK3 receptor (Homo sapiens, UniProt P29371)
T1 construct: expressed in transfected cells; host or cells: HEK293 cells, transient expression; membrane preparation
T1 sequence (P29371 1-465): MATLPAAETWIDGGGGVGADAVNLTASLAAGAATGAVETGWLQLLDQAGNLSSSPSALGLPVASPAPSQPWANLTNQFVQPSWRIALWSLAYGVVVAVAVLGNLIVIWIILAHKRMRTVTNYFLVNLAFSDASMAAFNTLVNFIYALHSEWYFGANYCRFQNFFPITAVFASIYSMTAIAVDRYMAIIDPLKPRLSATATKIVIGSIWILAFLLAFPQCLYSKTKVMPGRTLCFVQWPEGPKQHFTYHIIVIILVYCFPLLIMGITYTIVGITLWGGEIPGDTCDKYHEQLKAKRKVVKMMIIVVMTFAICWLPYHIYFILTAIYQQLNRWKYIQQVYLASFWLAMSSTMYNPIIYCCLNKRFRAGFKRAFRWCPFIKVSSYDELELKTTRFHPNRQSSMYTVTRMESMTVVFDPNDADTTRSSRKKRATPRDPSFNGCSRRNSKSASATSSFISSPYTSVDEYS
Assay: [3H]SR142801 competition binding assay
Description: [^3H]SR142801 Competition Binding Assay
hNK3 receptor binding experiment were performed using [^3H]SR142801 (Catalog No. TRK1035, specific activity: 74.0 Ci/mmol, Amersham, GE Healthcare UK limited, Buckinghamshire, UK) and membrane isolated from HEK293 cells transiently expressing recombinant human NK3 receptor. After thawing, the membrane homogenates were centrifuged at 48,000×g for 10 min at 4° C., the pellets were resuspended in the 50 mM Tris-HCl, 4 mM MnCl2, 1 μM phosphoramidon, 0.1% BSA binding buffer at pH 7.4 to a final assay concentration of 5 μg protein/well. For inhibition experiments, membranes were incubated with [^3H]SR142801 at a concentration equal to KD value of radioligand and 10 concentrations of the inhibitory compound (0.0003-10 μM) (in a total reaction volume of 500 μl) for 75 min at room temperature (RT). At the end of the incubation, membranes were filtered onto unitfilter (96-well white microplate with bonded GF/C filter preincubated 1 h in 0.3% PEI+0.3% BSA, Packard BioScience, Meriden, Conn.) with a Filtermate 196 harvester (Packard BioScience) and washed 4 times with ice-cold 50 mM Tris-HCl, pH 7.4 buffer. Nonspecific binding was measured in the presence of 10 μM SB222200 for both radioligands. The radioactivity on the filter was counted (5 min) on a Packard Top-count microplate scintillation counter with quenching correction after addition of 45 μl of microscint 40 (Canberra Packard S. A., Zurich, Switzerland) and shaking for 1 h. Inhibition curves were fitted according to the Hill equation: y=100/(1+(x/IC50)^nH), where nH=slope factor using Excel-fit 4 software ([…]). IC50 values were derived from the inhibition curve and the affinity constant (IQ values were calculated using the Cheng-Prussoff equation Ki=IC50/(1+[L]/KD) where [L] is the concentration of radioligand and KD is its dissociation constant at the receptor, derived from the saturation isotherm. All experiments were performed in duplicate and the mean±standard error (SEM) of the individual Ki values was calculated.

[1] = [3H]SR142801, membranes of HEK293 cells transiently expressing recombinant human NK3 receptor, read-out: hNK3 Ki
[2] = representative compounds, [3H]SR142801, HEK293 membranes, human NK3 receptor, read-out: Ki NK3 h

| Compound | Ki [1] [nM] | Ki [2] [nM] |
| --- | --- | --- |
| CCN(C1CCN(CCC(C)(C(=O)N(C)Cc2ccc(Cl)cc2)c2ccc(Cl)c(Cl)c2)CC1)S(C)(=O)=O (stereo not drawn) [Example 72, N-(4-Chloro-benzyl)-2-(3,4-dichloro-phenyl)-4-[4-(ethyl-methanesulfonyl-amino)-piperidin-1-yl]-2,N-dimethyl-butyramide] | 2.2 | 2.2 |
| CN(Cc1ccc(Cl)cc1)C(=O)C(CCN1CCC(N2CCCC2=O)CC1)c1ccc(F)c(F)c1 (stereo not drawn) [Example 116, N-(4-Chloro-benzyl)-2-(3,4-difluoro-phenyl)-N-methyl-4-[4-(2-oxo-pyrrolidin-1-yl)-piperidin-1-yl]-butyramide] | 198 | – |
| CC(=O)N(C)C1CCN(CCC(C)(C(=O)N(C)Cc2ccc(F)c(C(F)(F)F)c2)c2ccc(Cl)c(Cl)c2)CC1 (single isomer, unassigned) [Example 122, (R or S)-4-[4-(Acetyl-methyl-amino)-piperidin-1-yl]-2-(3,4-dichloro-phenyl)-N-(4-fluoro-3-trifluoromethyl-benzyl)-2,N-dimethyl-butyramide] | 1.5 | 1.5 |
| CN(Cc1ccc(Cl)c(Cl)c1)C(=O)C(C)(CCN1CCC(N(C)S(C)(=O)=O)CC1)c1ccc(Cl)c(Cl)c1 (stereo not drawn) [Example 48, N-(3,4-Dichloro-benzyl)-2-(3,4-dichloro-phenyl)-4-[4-(methanesulfonyl-methyl-amino)-piperidin-1-yl]-2,N-dimethyl-butyramide] | 3.6 | 3.6 |
| CCN(C1CCN(CCC(C)(C(=O)N(C)Cc2ccc(Cl)c(C(F)(F)F)c2)c2ccc(Cl)c(Cl)c2)CC1)S(C)(=O)=O (stereo not drawn) [Example 73, N-(4-Chloro-3-trifluoromethyl-benzyl)-2-(3,4-dichloro-phenyl)-4-[4-(ethyl-methanesulfonyl-amino)-piperidin-1-yl]-2,N-dimethyl-butyramide] | 1.5 | 1.5 |
| CC(=O)NC1CCN(CCC(C)(C(=O)N[C@H](CO)c2ccc(Cl)c(Cl)c2)c2ccc(Cl)c(Cl)c2)CC1 (single isomer, unassigned; diastereoisomer 2) [Example 159] | 258 | – |
| CC(CCN1CCC(NS(C)(=O)=O)CC1)(C(=O)NCc1cc(C(F)(F)F)ccc1F)c1ccc(Cl)c(Cl)c1 (stereo not drawn) [Example 15, 2-(3,4-Dichloro-phenyl)-N-(2-fluoro-5-trifluoromethyl-benzyl)-4-(4-methanesulfonyl-amino-piperidin-1-yl)-2-methyl-butyramide] | 166 | – |
| CC(=O)N(C1CC1)C1CCN(CCC(C)(C(=O)N[C@H](CO)c2ccc(Cl)c(Cl)c2)c2ccc(Cl)c(Cl)c2)CC1 (single isomer, unassigned; diastereoisomer 2) [Example 145, 4-[4-(Acetyl-cyclopropyl-amino)-piperidin-1-yl]-2-(3,4-dichloro-phenyl)-N-[1-(3,4-dichloro-phenyl)-2-hydroxy-ethyl]-2-methyl-butyramide (diastereoisomer 2)] | 50.2 | – |
| CC(CCN1CCC(NS(C)(=O)=O)CC1)(C(=O)NCc1ccc(C#N)cc1)c1ccc(Cl)c(Cl)c1 (stereo not drawn) [Example 27, N-(4-Cyano-benzyl)-2-(3,4-dichloro-phenyl)-4-(4-methanesulfonyl-amino-piperidin-1-yl)-2-methyl-butyramide] | 263 | – |
| CN(C1CCN(CCC(C)(C(=O)N[C@H](CO)c2ccc(Cl)c(Cl)c2)c2ccc(Cl)c(Cl)c2)CC1)S(C)(=O)=O (single isomer, unassigned; diastereoisomer 2) [Example 50, 2-(3,4-Dichloro-phenyl)-N-[1-(3,4-dichloro-phenyl)-2-hydroxy-ethyl]-4-[4-(methanesulfonyl-methyl-amino)-piperidin-1-yl]-2-methyl-butyramide; diastereoisomer 2] | 52.1 | – |
| CC(=O)N(C)C1CCN(CCC(C)(C(=O)NC(C)c2ccc(F)c(C(F)(F)F)c2)c2ccc(Cl)c(Cl)c2)CC1 (stereo not drawn) [Example 132, 4-[4-(Acetyl-methyl-amino)-piperidin-1-yl]-2-(3,4-dichloro-phenyl)-N-[1-(4-fluoro-3-trifluoromethyl-phenyl)-ethyl]-2-methyl-butyramide] | 46.2 | – |
| CN(Cc1ccc(Cl)c(C(F)(F)F)c1)C(=O)C(C)(CCN1CCC(N(C2CC2)S(C)(=O)=O)CC1)c1ccc(Cl)c(Cl)c1 (stereo not drawn) [Example 58, N-(4-Chloro-3-trifluoromethyl-benzyl)-4-[4-(cyclopropyl-methanesulfonyl-amino)-piperidin-1-yl]-2-(3,4-dichloro-phenyl)-2,N-dimethyl-butyramide] | 3.6 | 3.6 |
| CN(Cc1ccc(F)c(C(F)(F)F)c1)C(=O)C(F)(CCN1CCC(NS(C)(=O)=O)CC1)c1ccc(Cl)c(Cl)c1 (stereo not drawn) [Example 64, 2-(3,4-Dichloro-phenyl)-2-fluoro-N-(4-fluoro-3-trifluoromethyl-benzyl)-4-(4-methanesulfonyl-amino-piperidin-1-yl)-N-methyl-butyramide] | 122 | – |
| CC(CCN1CCC(NS(C)(=O)=O)CC1)(C(=O)NCc1cc(F)ccc1C(F)(F)F)c1ccc(Cl)c(Cl)c1 (stereo not drawn) [Example 13, 2-(3,4-Dichloro-phenyl)-N-(5-fluoro-2-trifluoromethyl-benzyl)-4-(4-methanesulfonyl-amino-piperidin-1-yl)-2-methyl-butyramide] | 580 | – |
| CN(Cc1cccc(F)c1)C(=O)C(C)(CCN1CCC(NS(C)(=O)=O)CC1)c1ccc(Cl)c(Cl)c1 (stereo not drawn) [Example 30, 2-(3,4-Dichloro-phenyl)-N-(3-fluoro-benzyl)-4-(4-methanesulfonyl-amino-piperidin-1-yl)-2,N-dimethyl-butyramide] | 123 | – |
| CC(=O)N(C1CC1)C1CCN(CCC(C)(C(=O)N[C@@H](CO)c2ccc(Cl)cc2)c2ccc(Cl)c(Cl)c2)CC1 (single isomer, unassigned; diastereoisomer 1) [Example 142, 4-[4-(Acetyl-cyclopropyl-amino)-piperidin-1-yl]-N-[1-(4-chloro-phenyl)-2-hydroxy-ethyl]-2-(3,4-dichloro-phenyl)-2-methyl-butyramide (diastereoisomer 1)] | 10.9 | – |
| CC(=O)N(C)C1CCN(CCC(C)(C(=O)N(C)Cc2ccc(Cl)cc2)c2ccc(Cl)c(Cl)c2)CC1 (stereo not drawn) [Example 102, 4-[4-(Acetyl-methyl-amino)-piperidin-1-yl]-N-(4-chloro-benzyl)-2-(3,4-dichloro-phenyl)-2,N-dimethyl-butyramide] | 5.1 | 5.1 |
| CN(Cc1ccc(Cl)c(Cl)c1)C(=O)C(CCN1CCC(NS(C)(=O)=O)CC1)c1ccc(Cl)c(Cl)c1 (stereo not drawn) [Example 34, N-(3,4-Dichloro-benzyl)-2-(3,4-dichloro-phenyl)-4-(4-methanesulfonyl-amino-piperidin-1-yl)-N-methyl-butyramide] | 77.5 | – |
| CCN(C(C)=O)C1CCN(CCC(C)(C(=O)N[C@@H](CO)c2ccc(F)cc2)c2ccc(Cl)c(Cl)c2)CC1 (single isomer, unassigned; epimer 2) [Example 167] | 34.9 | – |
| CCN(C1CCN(CCC(C)(C(=O)N(C)Cc2ccc(C(F)(F)F)cc2)c2ccc(Cl)c(Cl)c2)CC1)S(C)(=O)=O (stereo not drawn) [Example 76, 2-(3,4-Dichloro-phenyl)-4-[4-(ethyl-methanesulfonyl-amino)-piperidin-1-yl]-2,N-dimethyl-N-(4-trifluoromethyl-benzyl)-butyramide] | 1.7 | 1.7 |
